Literature values as cited in patent publication US20100297147A1, “COMPOSITIONS AND METHODS FOR MODULATING TLR14 ACTIVITY” (WYETH, priority 2006, published 2010).

Tested on: postnatal day 4 rat cerebellar granule neurons
Details: positive control, used at 10 uM

Compound: C[C@@H](N)[C@H]1CC[C@H](C(=O)Nc2ccncc2)CC1 [Y-27632]
- neurite outgrowth in the presence of myelin (known activity of control compound): known to induce neurite outgrowth in the presence of myelin
